19 molecules from ChEMBL document CHEMBL4118210, “Synthesis of novel hetero ring fused pyridine derivatives; Their anticancer activity, CoMFA and CoMSIA studies” (Bioorg Med Chem Lett, 2018) can be followed below.

Where only a bound is given, the exact number is not on record here.

One assay relates to COLO 205. Nature of the assay: Antiproliferative activity against human COLO205 cells by MTT assay. The assay is classed as functional, cell-based. (In general: Tetrazolium dyes change colour on reduction, which living cells bring about.)
For a further assay, the system named is MCF7. Nature of the assay: Antiproliferative activity against human MCF7 cells by MTT assay. Type of assay: functional, cell-based.
A further assay deals with HeLa. Nature of the assay: Antiproliferative activity against human HeLa cells by MTT assay. Type of assay: functional, cell-based.
The next assay relates to HEK293. Nature of the assay: Antiproliferative activity against human HEK293 cells by MTT assay. The assay is classed as cell-based.
Another assay concerns HepG2. Nature of the assay: Antiproliferative activity against human HepG2 cells by MTT assay. The assay is classed as functional, cell-based.

Take `CCCNC(=O)c1oc2nc(-c3cccs3)cc(C(F)(F)F)c2c1N`: the IC50 is 15.3 µM with COLO 205 (read-out: IC50); 15.5 µM in the assay with COLO 205 (read-out: pIC50 (converted)); 20.4 µM in the assay on MCF7 (read-out: IC50); 20.4 µM with MCF7 (read-out: pIC50 (converted)); 18.9 µM with HeLa (read-out: IC50); 19.1 µM in the assay on HeLa (read-out: pIC50 (converted)). The IC50 in the assay on HEK293 was determined as 64 µM; in the assay with HepG2 it was 17.2 µM.
Consider `CCCn1c(C)nc2c(oc3nc(-c4ccccc4)cc(C(F)(F)F)c32)c1=O`, for which the IC50 with COLO 205 (read-out: IC50) is over 220 µg/mL; with MCF7 (read-out: IC50), 117 µM; in the assay with MCF7 (read-out: pIC50 (converted)), 117 µM; with HeLa (read-out: IC50), over 220 µg/mL; in the assay with HEK293, 52 µM; in the assay on HepG2 it was over 220 µg/mL.
In the case of `O=c1c2oc3nc(-c4ccccc4)cc(C(F)(F)F)c3c2ncn1C1CCCC1`, the IC50 with COLO 205 (read-out: IC50), in the assay on MCF7 (read-out: IC50), with HeLa (read-out: IC50), in the assay with HEK293 and in the assay on HepG2 was over 220 µg/mL each time.
For the molecule `Cn1cnc2c(oc3nc(-c4ccccc4)cc(C(F)(F)F)c32)c1=O`, the IC50 with COLO 205 (read-out: IC50) was over 220 µg/mL; in the assay with COLO 205 (read-out: pIC50 (converted)) it was 9.77 µM; in the assay with MCF7 (read-out: IC50) it was over 220 µg/mL; with HeLa (read-out: IC50) it was over 220 µg/mL; in the assay with HEK293, over 220 µg/mL; in the assay with HepG2, 221 µM.
For `CCCNC(=O)c1oc2nc(-c3ccccc3)cc(C(F)(F)F)c2c1N`, the IC50 was 38.9 µM in the assay with COLO 205 (read-out: IC50); 38.9 µM in the assay on COLO 205 (read-out: pIC50 (converted)); 35.6 µM with MCF7 (read-out: IC50); 35.5 µM with MCF7 (read-out: pIC50 (converted)); 36.1 µM with HeLa (read-out: IC50); 36.3 µM with HeLa (read-out: pIC50 (converted)). In addition, the IC50 in the assay on HEK293 is 81 µM; with HepG2, 37.4 µM.
Consider `CNC(=O)c1oc2nc(-c3ccccc3)cc(C(F)(F)F)c2c1N`, for which the IC50 was 36.8 µM in the assay with COLO 205 (read-out: IC50); 37.2 µM with COLO 205 (read-out: pIC50 (converted)); 37.4 µM with MCF7 (read-out: IC50); 37.2 µM in the assay with MCF7 (read-out: pIC50 (converted)); 40.2 µM in the assay with HeLa (read-out: IC50); 45.7 µM in the assay on HeLa (read-out: pIC50 (converted)). The results for the IC50 in the assay with HEK293 and with HepG2 were 62 µM and 41.2 µM, respectively.
On to `Cn1cnc2c(oc3nc(-c4cccs4)cc(C(F)(F)F)c32)c1=O`, for which the IC50 with COLO 205 (read-out: IC50) was over 220 µg/mL; in the assay with MCF7 (read-out: IC50), over 220 µg/mL; with HeLa (read-out: IC50), over 220 µg/mL; in the assay with HeLa (read-out: pIC50 (converted)) it was 50.1 µM; in the assay on HEK293, over 220 µg/mL; in the assay on HepG2, over 220 µg/mL.
Take `Cc1nc2c(oc3nc(-c4ccccc4)cc(C(F)(F)F)c32)c(=O)n1C1CCCC1`: the IC50 was 18.7 µM with COLO 205 (read-out: IC50); 18.6 µM with COLO 205 (read-out: pIC50 (converted)); 22.8 µM with MCF7 (read-out: IC50); 22.9 µM with MCF7 (read-out: pIC50 (converted)); 18.2 µM in the assay with HeLa (read-out: IC50); 18.2 µM in the assay with HeLa (read-out: pIC50 (converted)). Further, the IC50 with HEK293 came to 96 µM; with HepG2, 17.1 µM.
Consider `CCNC(=O)c1oc2nc(-c3cccs3)cc(C(F)(F)F)c2c1N`, for which the IC50 in the assay on COLO 205 (read-out: IC50) was 18.7 µM; in the assay on COLO 205 (read-out: pIC50 (converted)), 18.6 µM; with MCF7 (read-out: IC50) it was 21.8 µM; in the assay on MCF7 (read-out: pIC50 (converted)), 21.9 µM; in the assay on HeLa (read-out: IC50) it was 14.2 µM; in the assay with HeLa (read-out: pIC50 (converted)), 14.1 µM. In addition, the figures for the IC50 in the assay on HEK293 and in the assay with HepG2 were 62 µM and 12.1 µM, respectively.
For the molecule `CCCn1cnc2c(oc3nc(-c4ccccc4)cc(C(F)(F)F)c32)c1=O`, the IC50 in the assay with COLO 205 (read-out: IC50) is over 220 µg/mL; in the assay with MCF7 (read-out: IC50) it was 85.5 µM; with MCF7 (read-out: pIC50 (converted)), 85.1 µM; with HeLa (read-out: IC50), over 220 µg/mL; with HEK293 it was 90 µM; in the assay with HepG2 it was over 220 µg/mL.
Consider `CCn1c(C)nc2c(oc3nc(-c4ccccc4)cc(C(F)(F)F)c32)c1=O`, for which the IC50 with COLO 205 (read-out: IC50), in the assay on MCF7 (read-out: IC50), with HeLa (read-out: IC50), in the assay on HEK293 and with HepG2 was over 220 µg/mL throughout.
Regarding `Nc1c(C(=O)NC2CCCC2)oc2nc(-c3ccccc3)cc(C(F)(F)F)c12`, the IC50 in the assay on COLO 205 (read-out: IC50) is 51.1 µM; in the assay with COLO 205 (read-out: pIC50 (converted)), 51.3 µM; with MCF7 (read-out: IC50) it was 59.8 µM; in the assay with MCF7 (read-out: pIC50 (converted)) it was 60.3 µM; in the assay with HeLa (read-out: IC50), 25.8 µM; in the assay on HeLa (read-out: pIC50 (converted)), 25.7 µM. Further, the values for the IC50 in the assay on HEK293 and in the assay on HepG2 were 85 µM and 32.4 µM, respectively.
Consider `CCCn1cnc2c(oc3nc(-c4cccs4)cc(C(F)(F)F)c32)c1=O`, for which the IC50 with COLO 205 (read-out: IC50), in the assay on MCF7 (read-out: IC50), in the assay with HeLa (read-out: IC50), with HEK293 and in the assay with HepG2 was over 220 µg/mL each time.
As for `CCNC(=O)c1oc2nc(-c3ccccc3)cc(C(F)(F)F)c2c1N`, the IC50 is 29.2 µM in the assay on COLO 205 (read-out: IC50); 28.8 µM with COLO 205 (read-out: pIC50 (converted)); 54 µM with MCF7 (read-out: IC50); 53.7 µM in the assay on MCF7 (read-out: pIC50 (converted)); 36.2 µM in the assay on HeLa (read-out: IC50); 36.3 µM with HeLa (read-out: pIC50 (converted)). Further, the IC50 in the assay on HEK293 came out at 70 µM; in the assay with HepG2 it was 42.8 µM.
In the case of `CCn1cnc2c(oc3nc(-c4cccs4)cc(C(F)(F)F)c32)c1=O`, the IC50 in the assay on COLO 205 (read-out: IC50), in the assay on MCF7 (read-out: IC50), with HeLa (read-out: IC50), in the assay with HEK293 and with HepG2 was over 220 µg/mL each time.
For the molecule `Nc1c(C(=O)NC2CCCC2)oc2nc(-c3cccs3)cc(C(F)(F)F)c12`, the IC50 in the assay on COLO 205 (read-out: IC50) is 18.4 µM; in the assay with COLO 205 (read-out: pIC50 (converted)), 18.6 µM; with MCF7 (read-out: IC50), 22.9 µM; in the assay with MCF7 (read-out: pIC50 (converted)), 22.9 µM; in the assay on HeLa (read-out: IC50), 21.8 µM; with HeLa (read-out: pIC50 (converted)) it was 21.9 µM. In addition, the IC50 worked out at 51 µM in the assay on HEK293 and 20.8 µM in the assay with HepG2.
Consider `CNC(=O)c1oc2nc(-c3cccs3)cc(C(F)(F)F)c2c1N`, for which the IC50 with COLO 205 (read-out: IC50) is 17.8 µM; in the assay on COLO 205 (read-out: pIC50 (converted)), 17.8 µM; in the assay on MCF7 (read-out: IC50) it was 18 µM; with MCF7 (read-out: pIC50 (converted)), 18.2 µM; in the assay with HeLa (read-out: IC50), 15.6 µM; with HeLa (read-out: pIC50 (converted)), 15.5 µM. The values for the IC50 in the assay with HEK293 and in the assay on HepG2 were 75 µM and 12.3 µM, respectively.
Take `Cc1nc2c(oc3nc(-c4ccccc4)cc(C(F)(F)F)c32)c(=O)n1C`: the IC50 in the assay with COLO 205 (read-out: IC50), with MCF7 (read-out: IC50), with HeLa (read-out: IC50), with HEK293 and with HepG2 was over 220 µg/mL each time.
As to `CCn1cnc2c(oc3nc(-c4ccccc4)cc(C(F)(F)F)c32)c1=O`, the IC50 was over 220 µg/mL in the assay on COLO 205 (read-out: IC50); 82.4 µM in the assay on MCF7 (read-out: IC50); 83.2 µM with MCF7 (read-out: pIC50 (converted)); over 220 µg/mL in the assay with HeLa (read-out: IC50); 121 µM with HEK293; over 220 µg/mL with HepG2.
